Measurements: patent US20180230143A1, “INHIBITORS OF NHR2 AND/OR RUNX1/ETO-TETRAMERIZATION” (Heinrich-Heine-Universität Düsseldorf, priority 2013, published 2018)

Key:
Type in all cases: biochemical
[1] = molecular target: T1, RUNX1-NHR2 protein (Homo sapiens, UniProt Q01196+Q06455); assay: ELISA: tetramer-dependent binding of RUNX1-NHR2 protein to immobilized RUNX3 oligonucleotide; conditions: read-out: ELISA Inhibition [%] NHR2
T1 construct: the wild type NHR2 tetramerization domain or the homologous BCR tetramerization domain (highlighted) are optionally enclosed by an N-terminal RUNX1 domain; His6 (C); made in house; host or cells: E. coli BL21(DE3)
Protocol: Preferably, for enzyme-linked immunosorbent assays (ELISA), wells of a 96 well plate were coated with 100 ng streptavidin (Dianova) in PBS over night at 4° C. […] Binding of RUNX1-containing proteins to the R3 oligonucleotide was detected with a primary anti-myc antibody (9E10, Santa Cruz) and a secondary HRP-coupled antibody (donkey anti-mouse IgG-HRP, Santa Cruz). ELISA was developed using the Sure Blue TMB Microwell Peroxidase substrate (KLP), and the reaction was stopped with sulfuric acid (1 N). Absorption at 450 nm and 650 nm was measured with the Spectra Max 340, Molecular Devices. Preferably, the ELISA assay is as further described in the experimental section.
The inhibition of NHR2 tetramerization was measured in vitro by tetramer-dependent binding of a RUNX1-NHR2 protein construct to an immobilized oligonucleotide derived from the RUNX3 promoter sequence in ELISA and ABCD assays. […] Furthermore, the influence of the inhibitors on the viability of RUNX1/ETO-dependent SKNO-1 cells was determined; as a control RUNX1/ETO-independent U937 cells were used.
The principle of the biochemical assays for measuring inhibition of NHR2 tetramerization is illustrated in FIG. 1. NHR2 tetramerization and its inhibition was measured in a purpose-built sandwich ELISA (enzyme-linked immunosorbent assay: FIG. 1A). • i) The RUNX1-NHR2 tetramer specifically binds to the biotinylated RUNX3-oligonucleotide (RUNX3-oligo^bio) that is immobilized on a streptavidine coated surface (SA). Disrupting the RUNX1-NHR2 tetramer into dimers leads to a release of the RUNX1-NHR2 protein from the surface. Antibody-conjugated horseradish peroxidase (HRP) binds to a primary anti-myc antibody (α-myc AB) that binds to the immobilized myc-labeled RUNX1-NHR2 tetramer. HRP catalyzes the conversion of 3,3′,5,5′-tetramethylbenzidine (TMB) to 3,3′,5,5-tetramethylbenzidine diimine.
Wells of a 96 well plate were coated with 100 ng streptavidin (Dianova) in PBS over night at 4° C. […] RUNX1-containing proteins were incubated with synthetic peptides or chemical compounds in binding buffer (25 mM HEPES, pH 7.5, 50 mM KCl, 1 mM EDTA, pH 8.0, 10 mM MgCl2, 5% glycerol, 1 mM DTT) in the presence of 1 μg salmon sperm and 1% IGEPAL CA-630 for 5 h and subsequently added to the streptavidin-bound R3 oligonucleotide for 15 min on the 96 well plate. Binding of RUNX1-containing proteins to the R3 oligonucleotide was detected with a primary anti-myc antibody (9E10, Santa Cruz) and a secondary HRP-coupled antibody (donkey anti-mouse IgG-HRP, Santa Cruz). ELISA was developed using the Sure Blue TMB Microwell Peroxidase substrate (KLP), and the reaction was stopped with sulfuric acid (1 N). Absorption at 450 nm and 650 nm was measured with the Spectra Max 340, Molecular Devices.

[2] = molecular target: T2, RUNX1-BCR protein (Homo sapiens, UniProt P11274+Q01196); assay: ELISA: tetramer-dependent binding of RUNX1-BCR protein to immobilized RUNX3 oligonucleotide (selectivity control); conditions: read-out: ELISA Inhibition [%] BCR
T2 construct: replacing the NHR2 domain of the construct with the homologous BCR tetramerization domain (RUNX1-BCR protein); His6 (C); made in house; host or cells: E. coli BL21(DE3)

[3] = molecular target: T1, RUNX1-NHR2 protein; assay: ABCD (avidin, biotin, complex, DNA) assay with RUNX1-NHR2 protein; conditions: read-out: ABCD Inhibition [%] NHR2
Protocol: (§1) Oligonucleotides were annealed to the corresponding unmodified antisense oligonucleotide to generate the RUNX1 binding site. Purified RUNX1 proteins were pre-incubated with a compound for 1 h at 4° C. Similarly the biotinylated double-stranded oligonucleotides were pre-incubated with streptavidin coated magnetic beads (Dynabeads M-280 Streptavidin, Invitrogen) for 1 h at 4° C. Protein/compound samples and beads with bound oligonucleotide were incubated in binding buffer (25 mM HEPES, pH 7.5, 50 mM KCl, 1 mM EDTA, pH 8.0, 10 mM MgCl2, 5% glycerol, 1 mM DTT) in the presence of 2% IGEPAL CA-630, 1 μg of salmon sperm, and 0.1% BSA for […]. After washing three times, the bound proteins were eluted from beads in SDS-PAGE sample buffer and resolved on SDS-PAGE followed by immunoblotting with a primary anti-myc (9E10, Santa Cruz) antibody and a secondary HRP-coupled antibody (goat anti-mouse IgG-HRP, Santa Cruz).

[4] = molecular target: T2, RUNX1-BCR protein; assay: ABCD (avidin, biotin, complex, DNA) assay with RUNX1-BCR protein; conditions: read-out: ABCD Inhibition [%] BCR
Protocol: as §1

[5] = relative inhibition at 1 mM inhibitor concentration, RUNX1-NHR2 protein
[6] = relative inhibition at 1 mM inhibitor concentration, RUNX1-BCR

T1 sequence (Q01196+Q06455 fused): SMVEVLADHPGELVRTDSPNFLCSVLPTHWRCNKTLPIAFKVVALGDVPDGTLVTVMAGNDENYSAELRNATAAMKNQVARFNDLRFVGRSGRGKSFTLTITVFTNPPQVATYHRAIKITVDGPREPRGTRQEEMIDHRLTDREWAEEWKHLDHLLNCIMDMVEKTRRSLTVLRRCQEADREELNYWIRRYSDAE
T2 sequence (Q01196+P11274 fused): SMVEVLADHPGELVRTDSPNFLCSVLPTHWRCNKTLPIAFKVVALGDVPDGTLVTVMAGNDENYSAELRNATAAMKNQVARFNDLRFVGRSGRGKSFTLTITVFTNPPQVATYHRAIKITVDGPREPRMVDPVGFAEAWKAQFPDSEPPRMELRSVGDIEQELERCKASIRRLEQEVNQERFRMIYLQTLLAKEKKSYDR

Compound | inhibition at 1000 µM [1, 5] | inhibition at 1000 µM [2, 6] | inhibition at 1000 µM [3, 5] | inhibition at 1000 µM [4, 6] | inhibition at 2000 µM ([1]; measured at 2 mM concentration, RUNX1-NHR2 protein) | inhibition at 2000 µM ([2]; measured at 2 mM concentration, RUNX1-BCR) | inhibition at 1000 µM [1] | inhibition at 1000 µM [2] | inhibition at 1000 µM [3] | inhibition at 1000 µM [4]
Cc1c(CC(=O)NCCC(=O)O)c(=O)oc2c(C)c3occ(C(C)(C)C)c3cc12 [Compound 5.17, 3-(2-(3-tert-butyl-5,9-dimethyl-7-oxo-7H-furo[3,2-g]chromen-6-yl)acetamido)propanoic acid] | 41.7% | 15.9% | 89.5% | 95.3% | – | – | – | – | – | –
COc1ccc(-c2ccc(CCC(=O)O)n2CCC(=O)O)cc1 [Compound 5.8, 3,3′-(5-(4-methoxyphenyl)-1H-pyrrole-1,2-diyl)dipropanoic acid] | – | – | – | – | – | – | 70.3% | 12% | 68.2% | 56.1%
Cc1oc(C(=O)O)cc1CSCc1cc(C(=O)O)oc1C [Compound 5.9, 5,5′-dimethyl-4,4′-(sulfanediylbis(methyl))-di(furan-2-carboxylic acid)] | 51.7% | 20.7% | 52.5% | 14.6% | – | – | – | – | – | –

Further lines, with some results ahead:

inhibition at 1000 µM [1, 5] | inhibition at 1000 µM [2, 6] | inhibition at 1000 µM [3, 5] | inhibition at 1000 µM [4, 6] | inhibition at 2000 µM ([1]; measured at 2 mM concentration, RUNX1-NHR2 protein) | inhibition at 2000 µM ([2]; measured at 2 mM concentration, RUNX1-BCR) | Compound | inhibition at 1000 µM [1] | inhibition at 1000 µM [2] | inhibition at 1000 µM [3] | inhibition at 1000 µM [4]
– | – | 47.4% | 6.1% | 71.6% | 10% | O=C(O)COc1cccc(OCC(=O)O)c1 [Compound 7.4, 2,2′-(1,3-phenylenebis(oxy))diacetic acid] | – | – | – | –
80.5% | 3.9% | 83% | 52.6% | – | – | COc1ccc(OC)c2[nH]c(C(=O)NCC3(CC(=O)O)CCCCC3)cc12 [Compound 5.18, 2-(1-((4,7-dimethoxy-1H-indole-2-carboxamido)methyl)cyclohexyl)acetic acid] | – | – | – | –
89.7% | 35.4% | 63.9% | -3.3% | – | – | O=C(CSc1nc2ccccc2[nH]1)Nc1ccc(Cl)c(C(=O)O)c1 [Compound 5.4, 5-(2-(1H-benzo[d]imidazol-2-ylthio)acetamido)-2-chlorobenzoic acid] | – | – | – | –
